The values below come from patent US7666985B2, “HLA-A24-restricted cancer antigen peptides” (International Institute of Cancer Immunology, Inc., priority 2002, dated 2010).

Data set [1] relates to C1R-A*2402 cells pulsed with the natural peptide of SEQ ID NO: 7. The conditions noted are these: PBMC from HLA-A2402 positive healthy donors stimulated in vitro with 10 μM peptide; E/T ratio of 10, 20 or 40. As for the experimental part:
(§1) Peripheral blood mononuclear cells were separated from healthy donors positive for HLA-A2402, and were placed into wells of a 24-well plate at 4×10^6 cells/well. To the wells, the natural peptide of SEQ ID NO: 7 or the altered peptide of SEQ ID NO: 3 was added at a concentration of 10 μM, and the mixture was incubated for a week in a culture medium comprising 45% RPMI1640, 45% AIV, 10% inactivated human AB serum, 1× nonessential amino acids, 25 ng/ml 2-mercaptoethanol, […] streptomycin, and 50 U/ml penicillin. After the incubation, the cells were adjusted to 2×10^6 cells/well, which were used as responder cells hereafter. On the other hand, peripheral blood mononuclear cells separated from the same healthy donors were incubated together with 10 μM of either of these peptides for 4 hours to accomplish the pulsing with peptide, and then radiated at 30 Gy. The cells were adjusted to 4×10^6 cells/well, which were used as stimulator cells hereafter.
(§2) The responder cells and the stimulator cells thus prepared were mixed together, and the mixture was added with IL-2 at 30 U/ml, and incubated. A similar stimulation of the responder cells with the stimulator cells was conducted three times with an interval of a week. The cytotoxic activity in those cells thus obtained was determined by ^51Cr release assay wherein the cytotoxic activity was determined by reacting the C1R-A*2402 cells positive for an HLA-A24 (Int. J. Cancer, 81, p 387, 1999) labeled with ^51Cr that were pulsed with the natural peptide of SEQ ID NO: 7 as target cells (T), and the cells stimulated with the natural peptide of SEQ ID NO: 7 or the altered peptide of SEQ ID NO: 3 as described above (effector cells)(E) at an E/T ratio of 10, 20 or 40. […] Further, a lung cancer cell line positive for WT1 and positive for an HLA-A24, RERF-LC-AI cells; a lung cancer cell line positive for WT1 and negative for an HLA-A2402, 11-18 cells; or a lung cancer cell line negative for WT1 and positive for an HLA-A24, 11-18 cells were used as target cells to determine the cytotoxic activities of the effector cells described above in a similar manner by ^51Cr release assay.

The test system of the next data set is RERF-LC-AI cells. Particulars: PBMC effector cells stimulated with peptide; targets RERF-LC-AI (WT1+, HLA-A24+) versus WT1+/HLA-A2402- and WT1-/HLA-A24+ lung cancer lines (LK87, 11-18). The protocol:
as §1, §2

Ends that are not written are not given here.

RYPGVAPTL [peptide G]: the “CTL-inducing activity (cytotoxic activity)” value in data set [1] is recorded as “CTLs were induced”. Further, the “cytotoxic activity of effector cells on lung cancer cell lines” value with RERF-LC-AI cells is reported as “CTLs were induced”.
